Here are results for five molecules from publication PMC3566133, “Molecular Analysis of the Prostacyclin Receptor’s Interaction with the PDZ1 Domain of Its Adaptor Protein PDZK1” (PLoS ONE, 2013).

Where a SMILES comes first, the peptide text is derived from it.

The target in series [1] is T1, PDZ1 domain of PDZK1 (Mus musculus, UniProt Q9JIL4).
T1 construct: Recombinant wild-type PDZ1 domain (0.03 mM in 150 mM NaCl); made in house
T1 sequence (Q9JIL4 9-90 limits assumed): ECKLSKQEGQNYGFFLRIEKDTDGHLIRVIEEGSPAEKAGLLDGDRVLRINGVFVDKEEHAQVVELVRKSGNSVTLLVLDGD
The series is described as follows: Isothermal titration calorimetry (ITC), binding to recombinant PDZ1 domain of PDZK1. Particulars: VP-ITC microcalorimeter, 1.0 mM peptide titrated into 0.03 mM PDZ1, 150 mM NaCl, 25 mM Tris-pH 8.0, 0.5 mM TCEP, 20°C, triplicate, ORIGIN 7.0, read-out: Kd (binding affinity) to PDZ1. As for the experimental part: Expression and purification of recombinant proteins corresponding to PDZ1 domain 1(PDZ1) of PDZK1 and to full length PDZK1 has been described previously. Binding of synthetic peptides based on the C-terminus of the IP (Fig. 1) was measured using a VP-ITC microcalorimeter (GE Healthcare). Three individual peptides were used: Peptide 1 corresponded to the seven carboxy-terminal amino acids of mouse (m) IP, to which two N-terminal lysines (not part of the IP protein sequence) were added to increase peptide solubility (KK^411IAACSLC^417, ‘target peptide’); Peptide 2 consisted of an octapeptide corresponding to the carboxy-terminus of IP (K^407SEAIAAC^414) devoid of the 3 terminal amino acids (-aaX/-^415SLC^417) which would be removed by proteolytic cleavage following farnesylation. […] Titration curves were analyzed and Kd values determined using ORIGIN 7.0 software (Origin Lab) with baseline correction. […]
Figure 2 Isothermal titration calorimetric analysis of the binding of a C-terminal peptide from IP to the PDZ1 domain of PDZK1. […] Titration curves were analyzed and Kd values determined using ORIGIN 7.0 software. […]

Series [2] addresses PDZ1 of PDZK1. The settings on record: cited from earlier work. The text has this:
PDZK1 is a multi-PDZ domain-containing adaptor protein known to play a role in the expression, localization and function of several cell surface receptors and ion channels. One of its molecular interactants is the prostacyclin receptor (IP), whose interaction with PDZK1 was recently described. […] These interactions involve a Class I type of binding typically seen for protein interactants with carbox ... || We recently solved the structures of the interactions between the HDL receptor SR-BI with the first and with the third PDZ domains of PDZK1 by X-ray crystallography, [32]. […] The crystal structure described herein, analyzing the interaction between the carboxy-terminus of the I ...

Series [3] deals with third PDZ domain (PDZ3) of PDZK1. Particulars: cited from earlier work. The source says: We recently solved the structures of the interactions between the HDL receptor SR-BI with the first and with the third PDZ domains of PDZK1 by X-ray crystallography, [32]. […] The crystal structure described herein, analyzing the interaction between the carboxy-terminus of the I ...
The target in series [4] is T2, recombinant protein corresponding to PDZ domain 1 (PDZ1) of PDZK1 (mouse).
T2 sequence (Q9JIL4 whole entry, looked up): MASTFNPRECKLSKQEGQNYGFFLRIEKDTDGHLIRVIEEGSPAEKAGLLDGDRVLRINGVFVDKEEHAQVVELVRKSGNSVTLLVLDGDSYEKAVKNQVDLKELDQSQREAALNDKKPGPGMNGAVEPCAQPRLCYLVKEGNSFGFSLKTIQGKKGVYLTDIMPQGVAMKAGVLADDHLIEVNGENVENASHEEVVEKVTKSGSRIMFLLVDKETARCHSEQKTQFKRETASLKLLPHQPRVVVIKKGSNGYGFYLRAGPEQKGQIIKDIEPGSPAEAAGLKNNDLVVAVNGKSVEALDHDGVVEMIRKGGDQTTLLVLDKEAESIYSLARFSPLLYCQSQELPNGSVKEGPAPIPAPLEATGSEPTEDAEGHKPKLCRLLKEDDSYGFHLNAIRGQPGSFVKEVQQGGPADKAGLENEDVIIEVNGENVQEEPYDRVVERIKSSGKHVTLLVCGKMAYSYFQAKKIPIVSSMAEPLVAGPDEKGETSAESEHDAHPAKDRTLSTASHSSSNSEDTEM
The series is described as follows: ITC; 1.0 mM peptide injected in 10 µl aliquots into 0.03 mM PDZ1 or full length PDZK1 in the cell; 150 mM NaCl, 25 mM Tris pH 8.0, 0.5 mM TCEP, 20°C; VP-ITC. (In ITC the heat of successive injections is recorded.)

The target of series [5] is T3, recombinant full-length PDZK1 (mouse, UniProt Q9JIL4 1-519).
T3 construct: PDZK1, full length, with PDZ1-PDZ4; source: recombinant, purified
T3 sequence (looked up): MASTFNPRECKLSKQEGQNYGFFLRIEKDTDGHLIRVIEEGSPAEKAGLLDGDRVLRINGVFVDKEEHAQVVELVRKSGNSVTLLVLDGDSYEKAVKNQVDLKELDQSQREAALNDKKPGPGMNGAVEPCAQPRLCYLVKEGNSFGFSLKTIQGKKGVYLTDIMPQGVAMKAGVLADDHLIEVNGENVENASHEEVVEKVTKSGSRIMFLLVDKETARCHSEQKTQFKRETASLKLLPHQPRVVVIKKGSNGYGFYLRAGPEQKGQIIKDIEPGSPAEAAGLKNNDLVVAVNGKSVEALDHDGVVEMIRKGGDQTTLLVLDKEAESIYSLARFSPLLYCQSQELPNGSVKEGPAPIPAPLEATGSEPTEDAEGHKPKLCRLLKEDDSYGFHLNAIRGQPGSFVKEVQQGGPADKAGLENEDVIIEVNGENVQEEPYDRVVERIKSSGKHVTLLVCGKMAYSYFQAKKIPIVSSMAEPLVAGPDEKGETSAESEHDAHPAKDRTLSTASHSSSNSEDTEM
Described as above. The settings on record: both partners purified.

Series [6] deals with the molecule itself. Briefly: crystal structure; PDZ1-IP chimera at 1 mM, sitting drop vapor diffusion, 18°C, 0.1 M MES pH 6.5, 30% (w/v) PEG 300; 1.70 Å; the IP peptide of one molecule binds the PDZ1 of the adjacent molecule.
Series [7] deals with T4, PDZK1 residues 7-106 (PDZ1 domain 7-86 with interdomain residues 87-106), the PDZK1 portion of the PDZ1-IP … (mouse, UniProt Q9JIL4 7-106).
T4 construct: PDZK1 residues 7-106: PDZ1 (7-86) and interdomain residues 87-106; numbering of the intact murine PDZK1; Stood in the crystal joined on one chain with m8 (the chimera m6, with Gly-Ser at its N-terminus); written apart for the pair PDZ1 with the IP peptide; also called PDZ1 portion of the structure; source: E. coli JM109, purified, as part of the PDZ1-IP chimera; not shown: GST, N-terminal, cleaved
T4 sequence (looked up): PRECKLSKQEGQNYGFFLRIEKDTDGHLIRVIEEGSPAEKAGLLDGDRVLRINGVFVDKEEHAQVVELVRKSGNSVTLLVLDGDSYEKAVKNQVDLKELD
The description is as above. The settings on record: both partners purified.

Usually Kd stands for the free concentration of one partner at which half of the binding sites on the other are occupied at equilibrium, for simple one-to-one binding. Turning to `CC[C@H](C)[C@H](NC(=O)[C@H](CCCCN)NC(=O)[C@@H](N)CCCCN)C(=O)N[C@@H](C)C(=O)N[C@@H](C)C(=O)N[C@@H](CS)C(=O)N[C@@H](CO)C(=O)N[C@@H](CC(C)C)C(=O)N[C@@H](CS)C(=O)O` [Peptide 1] (H-KKIAACSLC-OH), in series [1], the Kd was determined as 8.2 µM. For “-VLQEAKL [SR-BI, scavenger receptor class B, type I]”, the Kd in series [2] (PDZ1 of PDZK1, read-out: Kd of SR-BI binding to PDZ1) was 2.6 µM. Further, the “Affinity of SR-BI/PDZ1 interaction” value in series [2] was “high affinity”. In addition, in series [3], the “Affinity of SR-BI/PDZ3 interaction” value is recorded as “lower affinity”.

B1: Peptide 1 (KK411IAACSLC417), seven carboxy-terminal amino acids of mouse IP with two added N-terminal lysines (peptide)
peptide: KKIAACSLC
notes: prostacyclin receptor (IP), mouse, seven carboxy-terminal residues 411-417; also called target peptide; C-terminal nonapeptide from IP; source: synthetic peptide, HPLC purified (Tufts University Core Facility)
As to B1, the Kd in series [4] is 8.2 µM; in series [5], 60.2 ± 14.2 µM.

B2: chimeric PDZ1-IP recombinant protein (residues 7-106 of PDZK1 fused to the seven carboxy-terminal amino acids of mouse IP) (other)
chain: GSPRECKLSKQEGQNYGFFLRIEKDTDGHLIRVIEEGSPAEKAGLLDGDRVLRINGVFVDKEEHAQVVELVRKSGNSVTLLVLDGDSYEKAVKNQVDLKELDIAACSLC
notes: Gly-Ser dipeptide from the cloning vector (pGEX-4T-3), left at the N-terminus after thrombin digestion; PDZK1 residues 7-106: PDZ1 (7-86) and interdomain residues 87-106; numbering of the intact murine PDZK1; prostacyclin receptor (IP), mouse, seven carboxy-terminal residues 411-417; In the structure the chain is numbered 7Pro to 113Cys; also called PDZ1-IP chimera; PDZ1-IP target peptide …
Take B2: the binding result in series [6] is reported as “binds”.

B3: seven carboxy-terminal residues of mouse IP (411IAACSLC417), the IP portion of the PDZ1-IP chimera (peptide)
peptide: IAACSLC
notes: prostacyclin receptor (IP), mouse, seven carboxy-terminal residues 411-417; also numbered -6 to 0 from the C-terminal residue; Stood in the crystal fused to the C-terminus of m7 (the chimera m6); also called IP target peptide; IP peptide; source: E. coli JM109, purified, as part of the PDZ1-IP chimera
As to B3, in series [7], the binding result was “binds”.
